{
  "source": "patent US20250388896A1",
  "about": "“COMPOSITION AND METHODS FOR TRANSGENE INSERTION” (ARTISAN DEVELOPMENT LABS, INC, priority 2022, published 2025)",
  "assay_type_in_all_cases": "cell-based, human",
  "key": {"[1]": {"system": "TIM3", "assay": "gNA screen INDEL/frameshift frequency, TIM3", "settings": "Jurkat cells; CRISPResso2 ORF disruption analysis", "experimental": "(§1) Ribonucleoprotein complexes (RNPs) were generated by incubating respective guide nucleic acids (gNAs) with MAD7 in the molar ratio of 3:2 gNA:MAD7 for 15 minutes at room temperature immediately before transfection. For Jurkat experiments, the RNP complexes were generated by mixing the respective gNA (150 pmol), MAD7 (100 pmol), and nuclease-free water, unless otherwise stated.\n(§2) Lonza 4D Nucleofector with Shuttle unit (V4SC-2960 Nucleocuvette Strips) was used for transfection, following the manufacturer's instructions. […]\n(§3) Extracted genomic DNA was quantified using the NanoDrop (ThermoFisher Scientific). […] The DNA was eluted from the beads with nuclease-free water and the size of the purified amplicons analyzed on a 2% agarose E-gel using the E-gel electrophoresis system (ThermoFisher Scientific). In the second PCR, unique pairs of Illumina-compatible indexes (Nextera XT Index Kit v2) were added to the amplicons using the KAPA HiFi HotStart Ready Mix (Roche). […] Sizes of the purified DNA fragments were validated on a 2% agarose gel using the E-gel electrophoresis system (ThermoFisher Scientific), quantified using Qubit dsDNA HS Assay Kit (Thermo Fisher) and then pooled in equimolar concentrations. […] The final library was sequenced on Illumina MiSeq System using the MiSeq Reagent Kit v.2 (300 cycles, 2×250 bp, paired-end reads). […]"}, "[2]": {"system": "eight different loci (PDCD1, TIM3, LAG3, TIGIT, CTLA4, PTPN6, PTPN11, CD247)", "assay": "gNA screen and validation: INDEL and frameshift frequency at eight loci by amplicon sequencing", "settings": "Jurkat cells; gNAs adjacent to all YTTN PAM variants", "experimental": "as §1, §2, §3"}, "[3]": {"system": "predicted off-target sites", "assay": "INDEL frequency at predicted off-target sites by targeted deep sequencing", "settings": "Jurkat cells", "excerpt": "Extracted genomic DNA was quantified using the NanoDrop (ThermoFisher Scientific). […] Amplification products were purified with Agencourt AMPure XP beads (Ramcon), using the sample to beads ratio of 1:1.8. The DNA was eluted from the beads with nuclease-free water and the size of the purified amplicons analyzed on a 2% agarose E-gel using the E-gel electrophoresis system (ThermoFisher Scientific). In the second PCR, unique pairs of Illumina-compatible indexes (Nextera XT Index Kit v2) were added to the amplicons using the KAPA HiFi HotStart Ready Mix (Roche). The amplified products were purified with Agencourt AMPure XP beads (Ramcon), using the sample to bead ratio of 1:1.8. […] Sizes of the purified DNA fragments were validated on a 2% agarose gel using the E-gel electrophoresis system (ThermoFisher Scientific), quantified using Qubit dsDNA HS Assay Kit (Thermo Fisher) and then pooled in equimolar concentrations. […] The final library was sequenced on Illumina MiSeq System using the MiSeq Reagent Kit v.2 (300 cycles, 2×250 bp, paired-end reads). […]\nInitial quality assessment of the obtained reads was performed with FastQC36. […] For the ORF disruption analysis, CRISPRessoBatch command with the parameters --cleavage_offset 1 -coding_seq <EXON_SEQ> --quantification_window_size 0 --quantification_window_center 1 --expand_ambiguous_alignments was used. […]"}, "[4]": {"system": "PDCD1 protein", "assay": "PDCD1 knock-out: surface expression of PDCD1 protein by flow cytometry", "settings": "Jurkat cells", "experimental": "Flow cytometric assessments were carried out on a CytoFLEX S instrument (Beckmen Coulter) using a 96-well plate format. Measurements of cell viability, PDCD1 expression, GFP expression, and CAR expression were performed on 10,000 or 20,000 single cell events in Jurkat or primary T-cells, respectively.\nFor detection of PDCD1 knock-out efficiency, approx. 250,000 Jurkat cells per sample were transferred onto 96-well V-bottom cell culture plates and assessed following a series of consecutive washing and staining steps. The first step included centrifuging the cells at 300 g for 5 minutes at 4° C. and discarding the supernatant. Afterwards, the cells were stained using 100 μL Cell Staining Buffer (Biolegend) with APC/Cyanine7 anti-human CD279 (PD-1) antibody (1:100; Biolegend) and incubated for 30 minutes at 4° C. in the dark. The cells were then centrifuged at 300 g for 5 minutes at 4° C. and the supernatant discarded. The next step included two repeats of centrifugation at 300 g for 5 minutes at 4° C., supernatant removal, and cell washing in 150 μL ice-cold Cell Staining Buffer (Biolegend). In the final step, the cells were re-suspended in 100 μL Cell Staining Buffer for the flow cytometry measurements (excitation: red laser; emission: […]).\nHigh-efficiency gNAs identified in our initial analysis were validated by assaying INDEL frequency for the top three or five gNAs for each of the selected immunologically relevant genes (FIG. 14). […] Alternating grey and white zones on the plot represent groups of three to five high-efficiency gNAs per locus. […] Using the CRISPresso2 software, the degree of open reading frame (ORF) disruption for each of the validated gNAs was estimated (FIG. 14). In addition, for four high-efficiency gNAs targeting three different exons at the PDCD1 locus, surface expression of the PDCD1 protein was measured by flow cytometry 4, 7, and 11 days post-transfection (data not shown). […] Average fraction of INDELs leading to frameshifts (dashed line) is approx. 66%. Alternating grey and white zones on the plot represent groups of three to five high-efficiency gNAs per locus."}, "[5]": {"settings": "measured 4, 7 and 11 days post-transfection, day of value not stated"}},
  "data": [
    {"substance": "crTIM3_1: validated gNA targeting TIM3 (guide CUUGUAAGUAGUAGCAGCAGC; listed as RNA, further chemistry not given here)", "values": [
      {"measurement": "frameshifts frequency (fraction of frameshift to INDEL)", "setting": "[1]", "result": 23, "unit": "%"}
    ]},
    {"substance": "MAD7: type V-A Cas nuclease MAD7", "values": [
      {"measurement": "editing by PAM motif", "setting": "[2]", "result": "demonstrated editing with all eight combinations of YTTN PAM"},
      {"measurement": "INDEL frequency of MAD7 at predicted off-target sites", "setting": "[3]; all assayed off-target sites, Pairwise T-test, P≥0.05", "result": "No significant INDEL frequency"}
    ]},
    {"substance": "crPDCD1 3: high-efficiency gNA targeting the PDCD1 locus (guide CAGUGGCGAGAGAAGACCCCG; listed as RNA, further chemistry not given here)", "values": [
      {"measurement": "surface expression of the PDCD1 protein", "setting": "[4]; [5]", "result": 35, "unit": "%"}
    ]},
    {"substance": "crPDCD1_5: high-efficiency gNA targeting the PDCD1 locus (guide GUGCUAAACUGGUACCGCAUG; listed as RNA, further chemistry not given here)", "values": [
      {"measurement": "surface expression of the PDCD1 protein", "setting": "[4]; [5]", "result": 85, "unit": "%"}
    ]},
    {"substance": "crPDCD1_2: gNA targeting the PDCD1 gene at the extracellular domain of the protein (guide UCUGCAGGGACAAUAGGAGCC; listed as RNA, further chemistry not given here)", "values": [
      {"measurement": "surface expression of the PDCD1 protein", "setting": "[4]; 4 days post-transfection", "result": 10, "unit": "%"},
      {"measurement": "surface expression of the PDCD1 protein", "setting": "[4]; day 11 post-transfection", "result": "remained at this level"},
      {"measurement": "off-target activity (INDEL formation) at predicted off-target sites", "setting": "[3]; 25 predicted sites, up to four mismatches, crPDCD1_2_13 and crPDCD1_2_15 sites, insignificant vs MOCK (P≥0.05)", "result": "low-level off-target activity"}
    ]},
    {"substance": "crPDCD1 4: high-efficiency gNA targeting the PDCD1 locus (guide CUAGCGGAAUGGGCACCUCAU; listed as RNA, further chemistry not given here)", "values": [
      {"measurement": "surface expression of the PDCD1 protein", "setting": "[4]; [5]", "result": 85, "unit": "%"}
    ]},
    {"substance": "crTIM3_3: validated gNA targeting TIM3 (guide UAAGUAGUAGCAGCAGCAGCA; listed as RNA, further chemistry not given here)", "values": [
      {"measurement": "frameshifts frequency (fraction of frameshift to INDEL)", "setting": "[1]", "result": 44, "unit": "%"}
    ]}
  ]
}
